Test results from patent publication US6747125B1, “Peptides intermediates for making GnRH antagonists” (The Salk Institute for Biological Studies, priority 1991, dated 2004).

Tests used:
ovulation in female rats = assay: in vivo testing of effectiveness to prevent ovulation in female rats; design: species or system Sprague-Dawley rats; settings: injected at about noon on the day of proestrus, rats ovulating/rats treated
Experimental: The in vivo testing determines effectiveness to prevent ovulation in female rats. In this test, a specified number of mature female Sprague-Dawley rats, e.g. five to ten, each having a body weight from 225 to 250 grams, is injected with a specified microgram dosage of peptide in either saline, bacteriostatic water, polyethylene glycol, corn oil or mixtures of the above with ethanol at about noon on the day of proestrus. Proestrus is the afternoon […]. A separate female rat group is used as a control to which the peptide is not administered. Each of the control female rats ovulates on the evening of proestrus; of the rats treated, the number of them which ovulate is recorded. Each of the peptides is considered to be totally effective to prevent ovulation of female rats at a dose of about 500 micrograms.

[1] = tested on: LH levels in the bloodstream; assay: suppression of circulating LH in castrate male rats after single IV bolus; format: in vivo, Sprague-Dawley rats
From the text: In addition to the in vivo testing, mentioned above, to determine effectiveness to prevent ovulation in female rats, groups of about 6 adult castrate male Sprague-Dawley rats, each having a body weight from 225 to 250 grams, are each injected IV with a 50 microgram dosage of either Peptide No. 103A or a standard antagonist referred to as the Nal-Glu antagonist (see J. Clin. Edno. Metab., 71, 4, 881-888 (1990)) in either corn oil or a phosphate buffer in the presence of BSA (bovine serum albumin). A separate rat group is used as a control, to which only the carrier is administered. Each of the control rats and the rats being treated are monitored for LH levels in the bloodstream at about 3 hours, 24 hours, 36 hours and 48 hours following this single bolus injection.

Row | Substance | Rats Ovulating (ovulation in female rats; dosage 1.0 micrograms) | Rats Ovulating (ovulation in female rats; dosage 2.5 micrograms) | level of circulating LH in the bloodstream relative to Nal-Glu antagonist ([1]; 50 microgram IV, after 12 hours) | level of circulating LH in the bloodstream relative to control ([1]; 50 microgram IV, monitored at about 3, 24, 36 and 48 hours) | duration of biological effect (LH suppression) ([1]; single 50 microgram IV bolus injection) | Rats Ovulating (ovulation in female rats; dosage 0.5 micrograms)
1 | Ac-β-D-2NAL-(4Cl)D-Phe-D-3PAL-Ser-Lys (isopropyl cyanoguanidino)-D-Lys(isopropyl cyanoguanidino)-Leu-Lys(isopropyl)-Pro-D-Ala-NH2 [Peptide 1] | 0/5 | 0/9 |  |  |  | 
2 | Ac-β-D-2NAL-(4Cl)D-Phe-D-3PAL-Ser-Aph(3-amino 1,2,4 triazole)-D-Aph(3-amino 1,2,4 triazole)-Leu-Lys(isopropyl)-Pro-D-Ala-NH2 [Peptide 103A] | 0/7 | 0/8 | below that of the rats treated with the Nal-Glu antagonist | very substantially below that of the control | very long-acting | 7/8
